Experimental data: patent US10620222B2, “Electrified compositions for determining the risk of developing adolescent idiopathic scoliosis through the use of GI protein receptor” (CHU Sainte-Justine, priority 2008, dated 2020)
“And” between values parts separate entries of the source, which are not always exact repeats. Identical values can stand only once.

Assays:
[1] = system: Gi protein-mediated pathway in MG63 osteoblast cell line; type: cell-based; settings: 100 ng/mL PTX 16 h, stimulation with 10 μM ligand, 37° C., 5 min
Experimental: The ability of CDS to detect the relative part of the Gi protein-mediated pathway in melatonin signaling was determined by blocking this pathway with pertussis toxin (PTX). This toxin ADP-ribosylates the a subunit of the heterotrimeric Gi protein and thereby prevents its activity. The MG63 osteoblast cell line was serum-starved for 16 h in the absence or presence of 100 ng/mL of PTX to inhibit the αi subunit of Gi protein. […] Cellular responses were measured with CELLKEY™ label-free cellular analysis system as described in the Material and Methods section.

[2] = system: receptors coupled to Gi proteins expressed on osteoblasts; assay: Cellular Dielectric Spectroscopy (CDS, CELLKEY) response to Gi-coupled receptor ligands in osteoblasts from control and AIS subjects; type: cell-based, human; design: % of control / % of control signal, Group 1, min diff. / % of control signal, Group 2, min diff. / % of control signal, Group 3, min diff.: concentration or dose not given beside the values; dZiec value / Absolute dZiec, control value of max diff. (maximal control value): unit not given here; settings: for dZiec value: n1, n2 of Exper. 1-3
[3] = system: melatonin signaling in osteoblasts; assay: cAMP assay in forskolin pre-treated osteoblasts; type: cell-based, human; settings: osteoblasts from IS patients; increasing concentration of melatonin; FIG. 2
Experimental: Osteoblasts from patients with IS and control subjects were seeded in quadruplicate on 24-well plates (1×10^5 cells per well) and tested as previously described (Moreau A, Wang D S, Forget S et al. Melatonin Signaling Dysfunction in Adolescent Idiopathic Scoliosis. Spine 2004; 29:1772-81). All assays were performed in duplicate.
Cells were then challenged with increasing concentration of melatonin and the functional status of melatonin signaling was estimated by the ability of melatonin to reduce cAMP levels. Data were normalized with cAMP production induced by forskolin in the absence of melatonin. […] Furthermore, the extent of this production was different between the three IS patients.

[4] = osteoblasts of control subjects, 300 μM ligand, from FIGS. 11A-11F

## COc1ccc2[nH]cc(CCNC(C)=O)c2c1 [Melatonin, melatonin]
[1]
  inhibition extent of the CDS response by PTX treatment: about 75%
[2]; osteoblasts from both control and IS patients, FIGS. 4A-4C
  CDS response, dependence on concentration: concentration-dependent manner
[2]; osteoblasts of AIS#1020 (Group 3) relative to CTR#60
  % of control: 52.6% and 59.8% and 63.3% and 58.1% and 58% and 59.2%
[2]; osteoblasts of AIS#1020 (Group 3), 300 μM ligand
  dZiec value: 29.38 and 31.88 and 40.33 and 39.33 and 34.34 and 36.12
[2]; osteoblasts of AIS#1198 (Group 3 in Table II) relative to CTR#69
  % of control: 39.3% and 42.7% and 35.6% and 27.7% and 33.3% and 34.7%
[2]; osteoblasts of AIS#1198 (Group 3 in Table II), 300 μM ligand
  dZiec value: 23.94 and 31.44 and 31.91 and 25.91 and 27.41 and 29.19
[2]; osteoblasts of AIS#1468 (Group 3) relative to CTR#61
  % of control: 65.3% and 70% and 67.8% and 64.6% and 66.4% and 67.2%
[2]; osteoblasts of AIS#1468 (Group 3), 300 μM ligand
  dZiec value: 44.92 and 46.42 and 54.79 and 49.34 and 51.12
[2]; osteoblasts of AIS#1474 (Group 1) relative to CTR#60
  % of control: 29.6% and 24.4% and 23.8% and 22.4% and 29.3% and 26.4%
[2]; osteoblasts of AIS#1474 (Group 1), 300 μM ligand
  dZiec value: 16.53 and 13.03 and 15.18 and 17.34 and 16.12
[2]; osteoblasts of AIS#1488 (Group 1) relative to CTR#69
  % of control: 12.9% and 15.3% and 12.2% and 11.7% and 15% and 14.4%
[2]; osteoblasts of AIS#1488 (Group 1), 300 μM ligand
  dZiec value: 9.79 and 11.29 and 10.91 and 12.34 and 12.12
[2]; osteoblasts of AIS#1513 (Group 3) relative to CTR#61
  % of control: 56.5% and 59.4% and 62.9% and 61.1% and 59.7% and 60.6%
[2]; osteoblasts of AIS#1513 (Group 3), 300 μM ligand
  dZiec value: 38.90 and 39.40 and 50.81 and 51.81 and 44.34 and 46.12
[2]; osteoblasts of AIS#1549 (Group 1) relative to CTR#61
  % of control: 25.1% and 25.3% and 22.8% and 24.1% and 23.3%
[2]; osteoblasts of AIS#1549 (Group 1), 300 μM ligand
  dZiec value: 17.30 and 16.80 and 18.41 and 20.41 and 17.34 and 19.12
[2]; osteoblasts of AIS#1550 (Group 2) relative to CTR#60
  % of control: 50.7% and 57.7% and 46.2% and 47.9% and 49.5% and 51%
[2]; osteoblasts of AIS#1550 (Group 2), 300 μM ligand
  dZiec value: 28.28 and 30.78 and 29.43 and 32.43 and 29.34 and 31.12
[2]; osteoblasts of control CTR#60, 300 μM ligand
  dZiec value: 55.81/— and 53.31/— and 63.72/— and 67.72/— and 59.25/— and 61.03/—
[2]; osteoblasts of control CTR#61, 300 μM ligand
  dZiec value: 68.79/— and 66.29/— and 80.84/— and 84.84/— and 74.30/— and 76.08/—
[2]; osteoblasts of control CTR#69, 300 μM ligand
  dZiec value: 76.12/— and 73.62/— and 89.58/— and 93.58/— and 82.34/— and 84.12/—
[2]; [4]
  Absolute dZiec, control value of max diff. (maximal control value): 83
  Absolute dZiec, control value of min diff. (minimal control value): 60
[2]; osteoblasts, AIS Group 1 value of max diff., 300 μM ligand, from FIGS. 11A-11F
  Absolute dZiec, Group 1, max diff. (group value): 11
[2]; osteoblasts, AIS Group 1 value of min diff., 300 μM ligand, from FIGS. 11A-11F
  Absolute dZiec, Group 1, min diff. (group value): 18
[2]; osteoblasts, AIS Group 1 vs maximal control value
  % of control signal, Group 1, max diff.: 13%
[2]; osteoblasts, AIS Group 1 vs minimal control value
  % of control signal, Group 1, min diff.: 30%
[2]; osteoblasts, AIS Group 2 value of max diff., 300 μM ligand, from FIGS. 11A-11F
  Absolute dZiec, Group 2, max diff. (group value): 28
[2]; osteoblasts, AIS Group 2 value of min diff., 300 μM ligand, from FIGS. 11A-11F
  Absolute dZiec, Group 2, min diff. (group value): 37
[2]; osteoblasts, AIS Group 2 vs maximal control value
  % of control signal, Group 2, max diff.: 34%
[2]; osteoblasts, AIS Group 2 vs minimal control value
  % of control signal, Group 2, min diff.: 62%
[2]; osteoblasts, AIS Group 3 value of max diff., 300 μM ligand, from FIGS. 11A-11F
  Absolute dZiec, Group 3, max diff. (group value): 45
[2]; osteoblasts, AIS Group 3 value of min diff., 300 μM ligand, from FIGS. 11A-11F
  Absolute dZiec, Group 3, min diff. (group value): 50
[2]; osteoblasts, AIS Group 3 vs maximal control value
  % of control signal, Group 3, max diff.: 54%
[2]; osteoblasts, AIS Group 3 vs minimal control value
  % of control signal, Group 3, min diff.: 83%
[2]; osteoblasts, FIGS. 4A-4C
  magnitude of CDS response in IS osteoblasts vs control: significantly lower
[3]
  cAMP production after forskolin stimulation, IS vs healthy control osteoblasts: high cAMP production
